Results from patent US7713991B2, “Imidazo[[1, 5-A] pyridine derivatives and methods for treating aldosterone mediated diseases” (Novartis AG, priority 2003, dated 2010).

Target: aldosterone synthase (Rattus norvegicus, UniProt P30099)
Experiment: aldosterone synthase inhibitory activity in vitro
Format: biochemical
Settings: rat adrenal glomerulosa homogenate, corticosterone substrate; read-out: inhibits the aldosterone synthase activity, IC50 value
Source text: The aldosterone synthase inhibitory activity in vitro may be determined as follows:
Adult male Sprague-Dawley rats weighing 125-150 g are obtained from Harlan Farms. All animals are caged in pairs and maintained under standard conditions of light and temperature. The animals are placed on a sodium depleted diet (0.01-0.02%) from Harland Teklad, Madison Wis. (Cat. No. TD90228) and maintained on normal drinking water ad libitum. The animals are maintained on this diet for two to four weeks prior to harvesting the adrenal glomerulosa cells. The rats are killed by CO2 inhalation, and the adrenals are immediately removed and placed in the same ice-cold buffer used during homogenization and assay of the enzyme preparation. The adrenals are de-capsulated to obtain the glomerulosa tissue. The tissue is homogenized in a glass homogenizer containing Tris assay buffer (8.5 mM MgCl2, 2.7 mM CaCl2, 3.13 mM KCl, 7.59 mM NaCl, 0.1% TEA and 50 mM Tris HCl adjusted to pH 7.4). […] The plates are scanned for radioactivity with a Bioscan System 200 Imaging Scanner (Bioscan, Ish. D.C.). The two products of the aldosterone synthase, 18—OH-corticosterone and aldosterone are scraped and counted in a liquid scintillation counter (Beckman LS6000TA, Beckman Instr., Palo Alto, Calif.).
The slope (Hill Coefficient) and x intercept (IC50) are determined by linear regression of the experimental data.

aldosterone synthase, sequence (P30099 35-510): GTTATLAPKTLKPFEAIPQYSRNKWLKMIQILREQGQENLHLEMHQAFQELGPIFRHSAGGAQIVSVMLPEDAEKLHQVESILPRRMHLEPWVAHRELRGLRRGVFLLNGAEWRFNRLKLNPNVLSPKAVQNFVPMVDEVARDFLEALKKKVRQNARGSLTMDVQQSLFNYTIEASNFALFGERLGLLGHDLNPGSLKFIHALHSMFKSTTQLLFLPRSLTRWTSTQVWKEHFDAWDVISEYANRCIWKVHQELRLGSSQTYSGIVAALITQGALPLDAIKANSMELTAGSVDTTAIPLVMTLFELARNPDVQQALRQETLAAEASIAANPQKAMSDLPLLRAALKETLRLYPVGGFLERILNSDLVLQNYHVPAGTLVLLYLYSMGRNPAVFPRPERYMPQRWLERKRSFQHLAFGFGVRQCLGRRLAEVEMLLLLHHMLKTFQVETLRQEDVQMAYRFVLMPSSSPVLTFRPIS

SMILES	IC50
Cl.c1ccc2c(-c3cccc4cncn34)cccc2c1 [Example 1, 5-Naphthalen-1-yl-imidazo[1,5-a]pyridine hydrochloride]	~50 nM

Test system: not given
Experiment: not given
Settings: not given

SMILES	melting point
Cl.c1ccc2c(-c3cccc4cncn34)cccc2c1 [Example 1, 5-Naphthalen-1-yl-imidazo[1,5-a]pyridine hydrochloride]	222 to 223 °C
Cl.O=C(OCc1ccccc1)N1CC=C(c2cccc3cncn23)CC1	149 to 152 °C
Cl.c1ccc(-c2ccc(-c3cccc4cncn34)cc2)cc1	240 to 242 °C
Cl.c1ccc2c(-c3cccc4cncn34)coc2c1	96 to 98 °C
Cl.c1ccc(-c2ccccc2-c2cccc3cncn23)cc1	200 to 201 °C
